# US20210259251A1, “[…] PREVENT AND CONTROL FUNGAL PATHOGENS” (priority 2018, published 2021)
# Entries after “also recorded” stand apart in the source; their conditions may differ. Like-named read-outs stand apart in the source and are kept apart here.
# What was measured:
# Botrytis cinerea = assay: In vitro fungal bioassay, fungitoxic activity; details: for ED95 Botrytis cinerea: effect in 95% of the population, maximal concentration 1500 μM; for fungitoxic activity against Botrytis cinerea (in words): in vitro, dose range between 10 and 1500 μM
# Fusarium gramineum [1] = assay: Fungitoxic activity of combined isothiocyanates, 48 well plates, synergy (CompuSyn)
# Protocol: (§1) Applicants examined fungitoxic activities of combined isothiocyanates in three necrotrophic fungal species, i.e. Alternaria radicina (class: Dothideomycetes; order: Pleosporales; host: carrot), Fusarium gramineum (class: Sordariomycetes; order: Hypocreales; host: cereals) and Plectosphaerella cucumerina (class: Sordariomycetes; order: Glomerellales; host: tomato and cucurbits).
# (§2) Fungitoxic activities were tested in 48 well tissue culture plates. […] Synergistic fungitoxic activities was then estimated as in Chou (2006), and the CompuSyn software (www.combosyn.com) was used to determine the Combination Index (CI) for combinations of two molecules and the presence of synergism (CI<1).
# Alternaria radicina = assay: as above
# Protocol: as §1, §2
# [2] = test system: Plectosphaerella cucumerina; assay: as above
# Protocol: as §1, §2
# Phytophthora cactorum = assay: microbe, parasite or virus in culture; format: cell-based
# Fusarium gramineum [3] = assay: microbe, parasite or virus in culture; format: cell-based; details: for EC50: read-out: ED50 F. gramineum
# Phytophthora infestans = assay: microbe, parasite or virus in culture; format: cell-based; details: read-out: ED50 P. infestans
# Guignardia bidwellii = assay: In vitro fungal bioassay, fungitoxic activity; format: cell-based; details: Phyllosticta ampelicida; Table 5; unit from the concentration series of the method; read-out: ED50 G. bidwellii
# Fusarium oxysporum = assay: In vitro fungal bioassay, fungitoxic activity; details: maximal concentration 1500 μM; for ED95 F. oxysporum: Table 2, effect in 95% of the population; for fungitoxic activity against Fusarium oxysporum (in words): in vitro
# Septoria tritici = assay: In vitro antifungal assay (mycelial growth on PDA); details: Zymoseptoria tritici, read-out: ED50
# Colletotrichum dematium = assay: In vitro antifungal assay (mycelial growth on PDA); details: read-out: ED50
# Serpula lacrymans = assay: In vitro antifungal assay (mycelial growth on PDA); details: read-out: ED50
# Hemenoscyphus fraxineus = assay: In vitro antifungal assay (mycelial growth on PDA); details: read-out: ED50
# [4] = 168 h, read-out: EC50 Molecule 2
# [5] = 168 h, read-out: EC50 Molecule 2, Alternaria radicina, second molecule alone, range 10-850 μM, 850 = no fungitoxic activity in the tested range
# [6] = Table 3, maximal dosage 1500 μM
# [7] = Fusarium, Table 5, unit from the concentration series of the method
# [8] = 168 h, read-out: EC50 Molecule 1
# [9] = read-out: EC50 Molecule 1, Alternaria radicina, first molecule alone, range 10-850 μM, 850 = no fungitoxic activity in the tested range
structure (smiles),measurement,setting,value
"C[S+]([O-])CCCCCN=C=S (centres unmarked) [Molecule 5MSOH, 1-isothiocyanato-5-(methylsulfinyl)-pentane]",ED95 Botrytis cinerea,Botrytis cinerea; Table 4,<1500 µM
same,fungitoxic activity against Botrytis cinerea (in words),Botrytis cinerea,none of these single compounds revealed fungitoxic effect
"C[S+]([O-])CCCCCCCCCN=C=S (centres unmarked) [Molecule 9MSOH, 1-Isothiocyanato-9-(methylsulfinyl)-nonane]",EC50,Fusarium gramineum [1]; [4],553 µM
"CS(=O)(=O)CCCCCCCCCN=C=S [Molecule 9MSOOH, 1-Isothiocyanato-9-(methylsulfonyl)-nonane]",EC50,Fusarium gramineum [1]; [4],> 850 µM
"CS(=O)(=O)CCCCc1cccc(CN=C=S)c1 [Molecule 8ASOOH, 1-(isothiocyanatomethyl)-3-(4-(methylsulfonyl)butyl)benzene]",EC50,Alternaria radicina; [5],> 850 µM
"C[S+]([O-])CCCN=C=S (centres unmarked) [Molecule 3MSOH, 1-Isothiocyanato-3-(methylsulfinyl)-propane]",EC50,Alternaria radicina; [4],786 µM
same,EC50,Fusarium gramineum [1]; [4],525 µM
same,EC50,Fusarium gramineum [1]; read-out: EC50 Molecule 2,525 µM
same,EC50,[2]; [4],627 µM
"CS(=O)(=O)CCCCCCN=C=S [Molecule 6MSOOH, 1-Isothiocyanato-6-(methylsulfonyl)-hexane]",ED50 P. cactorum,Phytophthora cactorum; [6],<1500 µM
same,EC50,Fusarium gramineum [3]; [6],<1500 µM
same,fungistatic effect on Fusarium gramineum (in words),Fusarium gramineum [3]; in the dosage of 1500 μM,not fungistatic
"C[S+]([O-])CCCCCCCCN=C=S (centres unmarked) [Molecule 8MSOH, 1-Isothiocyanato-8-(methylsulfinyl)-octane]",EC50,Fusarium gramineum [3]; [7],292 µM
same,EC50,Phytophthora infestans,26.4 µM
same,EC50,Guignardia bidwellii,30.4 µM
same,ED95 Botrytis cinerea,Botrytis cinerea; Table 2,<1500 µM
same,ED95 Botrytis cinerea,Botrytis cinerea; Table 4,<1500 µM
same,fungitoxic activity against Botrytis cinerea (in words),Botrytis cinerea,no fungitoxic effect; also recorded: none of these single compounds revealed fungitoxic effect
same,ED95 F. oxysporum,Fusarium oxysporum,<1500 µM
same,fungitoxic activity against Fusarium oxysporum (in words),Fusarium oxysporum,no fungitoxic effect
same,EC50,Fusarium gramineum [1]; [8],317 µM
same,EC50,Fusarium gramineum [1]; [4],317 µM
same,EC50,Fusarium gramineum [1]; read-out: EC50 Molecule 1,317 µM
"CS(=O)(=O)CCCCCCCCN=C=S [Molecule 8MSOOH, 1-Isothiocyanato-8-(methylsulfonyl)-octane]",EC50,"Phytophthora cactorum; Phytophthora cactorum, read-out: ED50 P. cactorum",628 µM
same,EC50,"Fusarium gramineum [3]; Fusarium, Table 3, maximal dosage 1500 μM",464 µM
same,EC50,Fusarium gramineum [3]; [7],22.2 µM
same,EC50,Phytophthora infestans,350 µM
same,EC50,Guignardia bidwellii,464 µM
same,ED95 Botrytis cinerea,Botrytis cinerea; Table 2,<1500 µM
same,ED95 Botrytis cinerea,Botrytis cinerea; Table 4,<1500 µM
same,fungitoxic activity against Botrytis cinerea (in words),Botrytis cinerea,no fungitoxic effect; also recorded: none of these single compounds revealed fungitoxic effect
same,ED95 F. oxysporum,Fusarium oxysporum,<1500 µM
same,fungitoxic activity against Fusarium oxysporum (in words),Fusarium oxysporum,no fungitoxic effect
same,EC50,Fusarium gramineum [1]; [8],> 850 µM
same,EC50,[2]; read-out: EC50 Molecule 1,> 850 µM
"CS(=O)(=O)CCCN=C=S [Molecule 3MSOOH, 1-Isothiocyanato-3-(methylsulfonyl)-propane]",EC50,Alternaria radicina; [4],469 µM
same,EC50,Fusarium gramineum [1]; [4],387 µM
same,EC50,Fusarium gramineum [1]; read-out: EC50 Molecule 2,387 µM
same,EC50,[2]; [4],536 µM
"CCS(=O)(=O)CCCCCCCCN=C=S [Molecule 8ESOOH, 1-(ethylsulfonyl)-8-isothiocyanatooctane]",EC50,Alternaria radicina; [5],> 850 µM
"C[S+]([O-])CCCCc1cccc(CN=C=S)c1 (centres unmarked) [Molecule 8ASOH, 1-(isothiocyanatomethyl)-3-(4-(methylsulfinyl)butyl)benzene]",EC50,Alternaria radicina; [9],723 µM
"C[S+]([O-])CCCCCCCN=C=S (centres unmarked) [Molecule 7MSOH, 1-Isothiocyanato-7-(methylsulfinyl)-heptane]",EC50,Alternaria radicina; [5],537 µM
same,EC50,Fusarium gramineum [1]; [4],586 µM
same,EC50,Fusarium gramineum [1]; read-out: EC50 Molecule 2,586 µM
same,EC50,[2]; [4],337 µM
"C[S+]([O-])CCCCC/C=C/CN=C=S (centres unmarked) [Molecule 8CSOH, (E)-1-isothiocyanato-8-(methylsulfinyl)oct-2-ene]",EC50,Alternaria radicina; [9],472 µM
same,EC50,"Alternaria radicina; read-out: EC50 Molecule 1, first molecule alone, range 10-850 μM, 850 = no fungitoxic activity in the tested range",704 µM
same,EC50,Fusarium gramineum [1]; [8],> 850 µM
same,EC50,Fusarium gramineum [1]; read-out: EC50 Molecule 1,> 850 µM
same,EC50,[2]; read-out: EC50 Molecule 1,273 µM
"CS(=O)(=O)CCCCCN=C=S [Molecule 5MSOOH, 1-Isothiocyanato-5-(methylsulfonyl)-pentane]",ED95 Botrytis cinerea,Botrytis cinerea; Table 4,<1500 µM
same,fungitoxic activity against Botrytis cinerea (in words),Botrytis cinerea,none of these single compounds revealed fungitoxic effect
"CS(=O)(=O)CCCCCCCCC#N [Molecule 8MSOON, 8-(methylsulfonyl)octylnitrile]",ED95 Botrytis cinerea,Botrytis cinerea; Table 2,<1500 µM
same,ED95 F. oxysporum,Fusarium oxysporum,<1500 µM
"CC[S+]([O-])CCCCCCCCN=C=S (centres unmarked) [Molecule 8ESOH, 1-(ethylsulfinyl)-8-isothiocyanatooctane]",EC50,Alternaria radicina; [5],472 µM
same,EC50,Fusarium gramineum [1]; [8],533 µM
same,EC50,Fusarium gramineum [1]; read-out: EC50 Molecule 1,533 µM
CS(=O)(=O)CCCCCCCN=C=S [7-methylsulfonyl-heptyl isothiocyanate],fungitoxic activity against Botrytis cinerea (in words),Botrytis cinerea,no fungitoxic activity; also recorded: non-active
same,fungitoxic activity against Fusarium oxysporum (in words),Fusarium oxysporum,non-active
same,EC50,Septoria tritici,350 µM
same,EC50,Colletotrichum dematium,650 µM
same,EC50,Serpula lacrymans,150 µM
same,EC50,Hemenoscyphus fraxineus,770 µM
"C[S+]([O-])CCCCN=C=S (centres unmarked) [Molecule 4MSOH, 1-Isothiocyanato-4-(methylsulfinyl)-butane]",ED50 P. cactorum,Phytophthora cactorum,<1500 µM
same,EC50,Fusarium gramineum [3]; Fusarium,628 µM
